Common to all, as to assay type: in vivo
One series relates to Scirpus juncoides. Put plainly: Test Example 1: herbicidal activity, application before weed generation in submerged conditions (symbol B). Particulars: application herbicide amount 320 g/ha. An outline of the steps: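 Ratings (5: ≥90%, near complete withering; 4: 70–<90%; 3: 40–<70%; 2: 20–<40%; 1: 5–<20%; 0: ≤5%) were assigned 3 weeks after the diluted emulsion was applied to the water surface of freshly sown, submerged pots.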

Series [1] relates to Setaria viridis. Nature of the series: Test Example 4: herbicidal effect by soil treatment (symbol G). Particulars: application herbicide amount 320 g/ha. An outline of the steps:
(§1)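 Seeds were sown in sterilized diluvial soil, covered with about 1.5 cm of soil, and the soil surface was sprayed with a water-diluted emulsion of the compound at a predetermined rate. Plants grew in a greenhouse at 25° C. to 30° C.; effects were scored visually 3 weeks after application.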

The next series deals with Avena fatua. Put plainly: Test Example 4: herbicidal effect by soil treatment (symbol I). Particulars: application herbicide amount 320 g/ha. An outline of the steps: as §1
In series [2] the test system is Alopecurus myosuroides. Nature of the series: Test Example 4: herbicidal effect by soil treatment (symbol J). Particulars: application herbicide amount 320 g/ha. The procedure, abridged:
as §1

The next series deals with Lolium multiflorum Lam. Nature of the series: Test Example 4: herbicidal effect by soil treatment (symbol K). Particulars: application herbicide amount 320 g/ha. An outline of the steps:
as §1

The test system of another series is Abutilon theophrasti. Nature of the series: Test Example 4: herbicidal effect by soil treatment (symbol M). Particulars: application herbicide amount 320 g/ha. An outline of the steps:
as §1

Series [3] concerns Amaranthus retroflexus. Nature of the series: Test Example 4: herbicidal effect by soil treatment (symbol N). Particulars: application herbicide amount 320 g/ha. An outline of the steps: as §1
In a further series the test system is corn. Put plainly: Test Example 4: effect on crop by soil treatment (symbol c). As to conditions: application herbicide amount 320 g/ha. The procedure, abridged:
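Steps: fill box with sterilized diluvial soil; sow seed spot-like; cover with ~1.5 cm soil; grow in greenhouse (25° C. to 30° C.).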

In series [4] the test system is soybean. Nature of the series: Test Example 4: effect on crop by soil treatment (symbol d). As to conditions: application herbicide amount 320 g/ha. An outline of the steps: (§2)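 The test used sterilized diluvial soil. Seed was set down in spots and overlaid with about 1.5 cm of soil before growth in a greenhouse kept at 25° C. to 30° C.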
The test system of a further series is rice. Nature of the series: Test Example 4: effect on crop by soil treatment (symbol b). Particulars: application herbicide amount 320 g/ha. The procedure, abridged: as §2
The subject of series [5] is wheat. Nature of the series: Test Example 4: effect on crop by soil treatment (symbol e). Particulars: application herbicide amount 320 g/ha. An outline of the steps:
as §2

The next series deals with Digitaria ciliaris. Put plainly: Test Example 5: herbicidal effect by foliage application, plastic box (symbol F). As to conditions: 320 g/ha, 3 weeks after application. The procedure, abridged:
(§3)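 After sowing into sterilized diluvial soil and growing two weeks under glass at 25° C. to 30° C., seedlings receive a uniform foliar spray of diluted emulsion. Damage is judged visually three weeks on.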

The subject of series [6] is Setaria viridis. Nature of the series: Test Example 5: herbicidal effect by foliage application, plastic box (symbol G). Particulars: 320 g/ha, 3 weeks after application. An outline of the steps:
as §3

Series [7] has as its system Echinochloa crus-galli var. crus-galli. Put plainly: Test Example 5: herbicidal effect by foliage application, plastic box (symbol H). Particulars: 320 g/ha, 3 weeks after application. An outline of the steps: as §3
Series [8] has as its system Alopecurus myosuroides. Nature of the series: Test Example 5: herbicidal effect by foliage application, plastic box (symbol J). As to conditions: 320 g/ha, 3 weeks after application. An outline of the steps:
as §3

Series [9] concerns Amaranthus retroflexus. Put plainly: Test Example 5: herbicidal effect by foliage application, plastic box (symbol N). As to conditions: 320 g/ha, 3 weeks after application. The procedure, abridged: as §3
Series [10] has as its system soybean. Nature of the series: Test Example 5: effect on crop by foliage application, plastic box (symbol d). Particulars: 320 g/ha, 3 weeks after application. An outline of the steps: (§4)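 Diluvial soil, sterilized and boxed (21 × 13 × 7 cm), received spot-sown seed covered by about 1.5 cm soil; plants were then greenhouse-grown at 25–30° C.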
Another series deals with rice plant. Put plainly: Test Example 5: effect on crop by foliage application, plastic box (symbol b). Particulars: 320 g/ha, 3 weeks after application. The procedure, abridged: as §4
Series [11] deals with wheat. Put plainly: Test Example 5: effect on crop by foliage application, plastic box (symbol e). As to conditions: 320 g/ha, 3 weeks after application. An outline of the steps:
as §4

The test system of a further series is Stellaria media. Nature of the series: Test Example 4: herbicidal effect by soil treatment (symbol P). As to conditions: application herbicide amount 320 g/ha. The procedure, abridged:
as §1

For the compound `CON=C(C)CC1CC(OC(=O)C(C)(C)CCl)=C(c2c(C)cc(C)cc2C)C1=O` (stereo not drawn) [1-016], the “Herbicidal effect grade, B: Scirpus juncoides” value (“Herbicidal effect grade, B” for short) with Scirpus juncoides is given as 5 (Herbicidal ratio of 90% or more (almost completely withered)). Moreover, the “G (Setaria viridis) herbicidal effect grade” value with Setaria viridis [1] is 3 (Herbicidal ratio of 40% or higher and lower than 70%). The “I (Avena fatua) herbicidal effect grade” value with Avena fatua is 5 (Herbicidal ratio of 90% or more (almost completely withered)). The “J (Alopecurus myosuroides) herbicidal effect grade” value in the series on Alopecurus myosuroides [2] is recorded as 5 (Herbicidal ratio of 90% or more (almost completely withered)). In addition, in the series on Lolium multiflorum Lam., the “K (Lolium multiflorum Lam.) herbicidal effect grade” value is recorded as 5 (Herbicidal ratio of 90% or more (almost completely withered)). Besides, the “M (Abutilon theophrasti) herbicidal effect grade” value in the series with Abutilon theophrasti is reported as 5 (Herbicidal ratio of 90% or more (almost completely withered)). In the series on Amaranthus retroflexus [3], the “N (Amaranthus retroflexus) herbicidal effect grade” value is 5 (Herbicidal ratio of 90% or more (almost completely withered)). Moreover, the “c (corn) effect on crop grade” value in the series with corn is 4 (Herbicidal ratio of 70% or higher and lower than 90%). Also, in the series on soybean [4], the “d (soybean) effect on crop grade” value is 3 (Herbicidal ratio of 40% or higher and lower than 70%). Also, the “b (directly sowed rice plant) effect on crop grade” value in the series with rice is recorded as 5 (Herbicidal ratio of 90% or more (almost completely withered)). Further, in the series on wheat [5], the “e (wheat) effect on crop grade” value was 2 (Herbicidal ratio of 20% or higher and lower than 40%). Further, the “F: Digitaria ciliaris, herbicidal effect grade” value in the series with Digitaria ciliaris is 5 (Herbicidal ratio of 90% or more (almost completely withered)). For the same compound, in the series on Setaria viridis [6], the “G: Setaria viridis, herbicidal effect grade” value is on record as 5 (Herbicidal ratio of 90% or more (almost completely withered)). Moreover, the “H: Echinochloa crus-galli var. crus-galli, herbicidal effect grade” value in series [7] is 5 (Herbicidal ratio of 90% or more (almost completely withered)). In the series with Alopecurus myosuroides [8], the “J: Alopecurus myosuroides, herbicidal effect grade” value is 5 (Herbicidal ratio of 90% or more (almost completely withered)). Further, in the series on Amaranthus retroflexus [9], the “N: Amaranthus retroflexus, herbicidal effect grade” value was 4 (Herbicidal ratio of 70% or higher and lower than 90%). In the series with soybean [10], the “d: soybean, effect on crop grade” value is 4 (Herbicidal ratio of 70% or higher and lower than 90%). In addition, in the series on rice plant, the “b: directly sowed rice plant, effect on crop grade” value (“b: directly sowed rice plant” for short) is recorded as 5 (Herbicidal ratio of 90% or more (almost completely withered)). The “e: wheat, effect on crop grade” value with wheat [11] is listed as 5 (Herbicidal ratio of 90% or more (almost completely withered)).
Regarding `CON=C(C)CC1CC(OC(=O)C(C)(C)Oc2ccccc2)=C(c2c(C)cc(C)cc2C)C1=O` (stereo not drawn) [1-017], the “Herbicidal effect grade, B” value with Scirpus juncoides is recorded as 5 (Herbicidal ratio of 90% or more (almost completely withered)). In the series on Setaria viridis [1], the “G (Setaria viridis) herbicidal effect grade” value is given as 5 (Herbicidal ratio of 90% or more (almost completely withered)). In addition, in the series with Avena fatua, the “I (Avena fatua) herbicidal effect grade” value is 5 (Herbicidal ratio of 90% or more (almost completely withered)). Also, the “J (Alopecurus myosuroides) herbicidal effect grade” value in the series with Alopecurus myosuroides [2] is 5 (Herbicidal ratio of 90% or more (almost completely withered)). In addition, the “K (Lolium multiflorum Lam.) herbicidal effect grade” value with Lolium multiflorum Lam. is on record as 5 (Herbicidal ratio of 90% or more (almost completely withered)). In addition, in the series on Abutilon theophrasti, the “M (Abutilon theophrasti) herbicidal effect grade” value was 5 (Herbicidal ratio of 90% or more (almost completely withered)). In addition, the “N (Amaranthus retroflexus) herbicidal effect grade” value in the series with Amaranthus retroflexus [3] was 5 (Herbicidal ratio of 90% or more (almost completely withered)). The “c (corn) effect on crop grade” value in the series with corn is 4 (Herbicidal ratio of 70% or higher and lower than 90%). In addition, the “d (soybean) effect on crop grade” value in the series with soybean [4] is 2 (Herbicidal ratio of 20% or higher and lower than 40%). For the same compound, the “b (directly sowed rice plant) effect on crop grade” value in the series with rice is recorded as 5 (Herbicidal ratio of 90% or more (almost completely withered)). Besides, in the series with wheat [5], the “e (wheat) effect on crop grade” value was 2 (Herbicidal ratio of 20% or higher and lower than 40%). The “F: Digitaria ciliaris, herbicidal effect grade” value in the series on Digitaria ciliaris is recorded as 5 (Herbicidal ratio of 90% or more (almost completely withered)). Also, in the series on Setaria viridis [6], the “G: Setaria viridis, herbicidal effect grade” value is listed as 5 (Herbicidal ratio of 90% or more (almost completely withered)). The “H: Echinochloa crus-galli var. crus-galli, herbicidal effect grade” value in series [7] was 5 (Herbicidal ratio of 90% or more (almost completely withered)). In the series on Alopecurus myosuroides [8], the “J: Alopecurus myosuroides, herbicidal effect grade” value is recorded as 5 (Herbicidal ratio of 90% or more (almost completely withered)). Besides, the “N: Amaranthus retroflexus, herbicidal effect grade” value in the series on Amaranthus retroflexus [9] is 4 (Herbicidal ratio of 70% or higher and lower than 90%). Also, the “d: soybean, effect on crop grade” value in the series on soybean [10] was 4 (Herbicidal ratio of 70% or higher and lower than 90%). The “b: directly sowed rice plant” value with rice plant is recorded as 5 (Herbicidal ratio of 90% or more (almost completely withered)). Further, the “e: wheat, effect on crop grade” value in the series on wheat [11] is listed as 5 (Herbicidal ratio of 90% or more (almost completely withered)).
Regarding `CON=C(C)CC1CC(OC(=O)N2CCOCC2)=C(c2c(C)cc(-c3ccc(Cl)cc3)cc2OC)C1=O` (stereo not drawn) [6-078, 2-(4′-chloro-3-methoxy-5-methyl-[1,1′-biphenyl]-4-yl)-4-{2-(methoxyimino)propyl}-3-oxocyclopent-1-ene-1-yl morpholine-4-carboxylate], the “Herbicidal effect grade, B” value in the series on Scirpus juncoides is 5 (Herbicidal ratio of 90% or more (almost completely withered)). In addition, the “G: Setaria viridis, herbicidal effect grade” value in the series with Setaria viridis [1] is on record as 5 (Herbicidal ratio of 90% or more (almost completely withered)). For the same compound, the “I: Avena fatua, herbicidal effect grade” value in the series on Avena fatua is 3 (Herbicidal ratio of 40% or higher and lower than 70%). In addition, the “J: Alopecurus myosuroides, herbicidal effect grade” value in the series on Alopecurus myosuroides [2] is on record as 0 (Herbicidal ratio of 5% or lower (almost no effect)). Further, the “K: Lolium multiflorum Lam., herbicidal effect grade” value in the series on Lolium multiflorum Lam. was 0 (Herbicidal ratio of 5% or lower (almost no effect)). Besides, the “M: Abutilon theophrasti, herbicidal effect grade” value with Abutilon theophrasti is 1 (Herbicidal ratio of 5% or higher and lower than 20%). For the same compound, the “N: Amaranthus retroflexus, herbicidal effect grade” value in the series with Amaranthus retroflexus [3] is reported as 0 (Herbicidal ratio of 5% or lower (almost no effect)). In addition, in the series on Stellaria media, the “P: Stellaria media, herbicidal effect grade” value is 0 (Herbicidal ratio of 5% or lower (almost no effect)). Also, in the series with corn, the “c: corn, effect on crop grade” value is reported as 0 (Herbicidal ratio of 5% or lower (almost no effect)). Moreover, the “d: soybean, effect on crop grade” value in the series on soybean [4] is 1 (Herbicidal ratio of 5% or higher and lower than 20%). The “b: directly sowed rice plant” value with rice was 1 (Herbicidal ratio of 5% or higher and lower than 20%). Besides, in the series on wheat [5], the “e: wheat, effect on crop grade” value was 0 (Herbicidal ratio of 5% or lower (almost no effect)). The “F: Digitaria ciliaris, herbicidal effect (criteria of Test Example 1)” value in the series on Digitaria ciliaris is 5 (Herbicidal ratio of 90% or more (almost completely withered)). In addition, the “G: Setaria viridis, herbicidal effect (criteria of Test Example 1)” value in the series on Setaria viridis [6] is given as 5 (Herbicidal ratio of 90% or more (almost completely withered)). Further, the “H: Echinochloa crus-galli var. crus-galli, herbicidal effect (criteria of Test Example 1)” value in series [7] is given as 5 (Herbicidal ratio of 90% or more (almost completely withered)). The “J: Alopecurus myosuroides, herbicidal effect (criteria of Test Example 1)” value in the series on Alopecurus myosuroides [8] is listed as 5 (Herbicidal ratio of 90% or more (almost completely withered)). For the same compound, in the series with Amaranthus retroflexus [9], the “N: Amaranthus retroflexus, herbicidal effect (criteria of Test Example 1)” value is 0 (Herbicidal ratio of 5% or lower (almost no effect)). Further, the “d: soybean, effect on crop (criteria of Test Example 1)” value in the series on soybean [10] is on record as 0 (Herbicidal ratio of 5% or lower (almost no effect)). Further, in the series with wheat [11], the “e: wheat, effect on crop (criteria of Test Example 1)” value was 5 (Herbicidal ratio of 90% or more (almost completely withered)).

The values above are taken from US11000033B2, “Ketone or oxime compound, and herbicide” (NISSAN CHEMICAL CORPORATION, priority 2014, dated 2021).
